Test results published in ChEMBL document CHEMBL1148063, “(+/-)-Gelliusines A and B, two diastereomeric brominated tris-indole alkaloids from a deep water new caledonian marine sponge (Gellius or Orina sp.)” (J Nat Prod, 1994).
In brackets after ≈: the same amount, converted by molar mass. Activity calls are given as the source filed them. The rule behind the calls is not given here.

How the values were obtained:
Ileum [1] = experiment: Inhibition of acetylcholine-induced contraction in guinea pig ileum at 0.2 ug/ml; format: functional, tissue-based; conditions: Cavia porcellus
Ileum [2] = experiment: Inhibition of acetylcholine-induced contraction in guinea pig ileum at 0.5 ug/ml; format: functional, tissue-based; conditions: Cavia porcellus
KB = experiment: Cytotoxicity against human KB cells; format: functional, cell-based
P388 [3] = experiment: Cytotoxicity against mouse P388 cells; format: functional, cell-based
P388 [4] = experiment: Cytotoxicity against mouse doxorubicin-resistant P388 cells; format: functional, cell-based
HT-29 = experiment: Cytotoxicity against human HT-29 cells; format: functional, cell-based
[5] = Cytotoxicity against human NSCLC-N6 cells; format: functional, cell-based
Ileum [6] = experiment: Inhibition of serotonin-induced contraction in guinea pig ileum at 4 ug/ml; format: functional, tissue-based; conditions: Cavia porcellus
Cavia porcellus = species: Cavia porcellus; experiment: Antagonist activity at serotonin receptor in guinea pig ileum; format: functional, tissue-based

In the case of `CC(C)NCC(O)COc1cccc2ccccc12` (centres undefined), the Activity (Ileum [1]) is reported as “inactive”.

With `CC(COc1ccccc1)N(CCCl)Cc1ccccc1` (centres undefined) the Activity (Ileum [2]) was “inactive”.

For `NCCc1c(C(CN)c2c[nH]c3cc(Br)ccc23)[nH]c2cc(C(CN)c3c[nH]c4cc(Br)ccc34)c(O)cc12` (racemic) [GELLIUSINE A], the IC50 (KB) was 10 µg/mL (≈ 15.4 µM), the IC50 (P388 [3]) was 10 µg/mL (≈ 15.4 µM) and the IC50 (P388 [4]) was 10 µg/mL (≈ 15.4 µM). The IC50 (HT-29) was 10 µg/mL (≈ 15.4 µM), the IC50 [5] was 10 µg/mL (≈ 15.4 µM) and the Activity (Ileum [6]) was “Active”. The Activity (Cavia porcellus) was “Active”.
